Measurements: patent publication US7741342B2, “Water-soluble thalidomine derivatives” (priority 2003, dated 2010)
Where two headings read alike, the source gives them in different places.

Assays:
[1] = aqueous solution stability; conditions: hydrochloride salt
[2] = buffer

Row | SMILES | aqueous solution stability t1/2 [1] [h] | aqueous solution stability t1/2 [2] [h]
1 | CCN(CC)CC(=O)N[C@H](C(=O)OCN1C(=O)CCC(N2C(=O)c3ccccc3C2=O)C1=O)C(C)C.Cl (stereo partly drawn) [Example 1, (S)-2-(diethylaminoacetamido)-3-methyl butyric acid 2-(1-(hydroxymethyl)-2,6-dioxopiperidin-3-yl)isoindoline-1,3-dione ester hydrochloride] | > 8 | –
2 | CC(C)[C@H](NC(=O)CN(C)C)C(=O)OCN1C(=O)CCC(N2C(=O)c3ccccc3C2=O)C1=O.Cl (stereo partly drawn) [Example 2, (S)-2-(dimethylaminoacetamido)-3-methyl butyric acid 2-(1-(hydroxymethyl)-2,6-dioxopiperidin-3-yl)isoindoline-1,3-dione ester hydrochloride] | > 8 | –
3 | CC(C)[C@H](NC(=O)CN1CCCCC1)C(=O)OCN1C(=O)CCC(N2C(=O)c3ccccc3C2=O)C1=O.Cl (stereo partly drawn) [Example 3, (S)-2-(1-piperidinylacetamido)-3-methyl butyric acid 2-(1-(hydroxymethyl)-2,6-dioxopiperidin-3-yl)isoindoline-1,3-dione ester hydrochloride] | > 8 | –
4 | CCN(CC)CC(=O)OCN1C(=O)CCC(N2C(=O)c3ccccc3C2=O)C1=O.Cl (centres unmarked) [Example 4, Diethylaminoacetic acid 2-(1-(hydroxymethyl)-2,6-dioxopiperidin-3-yl)isoindoline-1,3-dione ester hydrochloride] | – | > 8
5 | CN(C)CC(=O)OCN1C(=O)CCC(N2C(=O)c3ccccc3C2=O)C1=O.Cl (centres unmarked) [Example 5, Dimethylaminoacetic acid 2-(1-(hydroxymethyl)-2,6-dioxopiperidin-3-yl)isoindoline-1,3-dione ester hydrochloride salt] | – | > 4
